Patent US8871756B2 (Hoffmann-La Roche Inc., priority 2011, dated 2014)

These molecules were tested on RSV Long strain (assay: Viral cytopathic effect (CPE) assay, anti-RSV activity). Settings: RSV Long strain (ATCC); cell viability after 6 days, Cell Counting kit-8.
Type: cell-based, Respiratory Syncytial Virus
How it was run: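 EC50 was derived from CCK-8 viability at 450/630 nm measured 6 days post-infection. Infection used enough RSV Long strain for approximately 80–90% cytopathic effect, in the presence of half-log serially diluted compound. Cells were plated the day before at 6×10^3 per well in DMEM/10% FBS.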
Molecule `Cc1ccc2nc(N3CC[S+]([O-])c4ccccc4C3)cc(NCC3(N)COC3)c2c1` (single isomer, unassigned; (+)) [Example 18-2, (+)-N-[(3-Aminooxetan-3-yl)methyl]-6-methyl-2-[1-oxido-2,3-dihydro-1,4-benzothiazepin-4(5H)-yl]quinolin-4-amine] has an EC50 of 0.024 µM.

Same assay, conditions: human respiratory syncytial virus, 144 h, RSV Long strain (ATCC); cell viability after 6 days, Cell Counting kit-8
`Cc1ccc2nc(N3CCS(=O)(=O)c4ccccc4C3)nc(NCC3(N)CCC3)c2c1` [Example 61-2, N-[(1-Aminocyclobutyl)methyl]-2-(1,1-dioxido-2,3-dihydro-1,4-benzothiazepin-4(5H)-yl)-6-methylquinazolin-4-amine] was tested, and the EC50 was 0.097 µM.
In the case of `Cc1ccc2nc(N3CCC(F)(F)c4ccccc4C3)cc(NCCN3CCNCC3)c2c1` [Example 110-7, 2-(5,5-Difluoro-1,3,4,5-tetrahydro-2H-2-benzazepin-2-yl)-6-methyl-N-[2-(piperazin-1-yl)ethyl]quinolin-4-amine], the EC50 is reported as 1.18 µM.
`O=S1(=O)CCN(c2cc(NCCO)c3cnccc3n2)Cc2ccccc21` [Example 12-2, 2-{[2-(1,1-Dioxido-2,3-dihydro-1,4-benzothiazepin-4(5H)-yl)-1,6-naphthyridin-4-yl]amino}ethanol] showed an EC50 of 0.315 µM.
With `CCN(CCNc1cc(N2CCS(=O)(=O)c3ccccc3C2)nc2ccc(C)cc12)C1COC1` [Example 44-2, N′-[2-(1,1-Dioxido-2,3-dihydro-1,4-benzothiazepin-4(5H)-yl)-6-methylquinolin-4-yl]-N-ethyl-N-(oxetan-3-yl)ethane-1,2-diamine] the EC50 was 1.55 µM.
`Cc1ccc2nc(N3CCS(=O)(=O)c4ccccc4C3)cc(NC(=O)c3cnccn3)c2c1` [Example 47-8, N-[2-(1,1-Dioxido-2,3-dihydro-1,4-benzothiazepin-4(5H)-yl)-6-methylquinolin-4-yl]pyrazine-2-carboxamide] was tested, and the EC50 was 0.432 µM.
For `Cc1ccc2nc(N3CC(=O)Nc4ccccc4C3)cc(NCCN)c2c1` [Example 133-1, 4-{4-[(2-Aminoethyl)amino]-6-methylquinolin-2-yl}-1,3,4,5-tetrahydro-2H-1,4-benzodiazepin-2-one], the EC50 was 0.31 µM.
`Cc1ccc2nc(N3CCS(=O)(=O)c4ccccc4C3)nc(NCC(F)(F)CN)c2c1` [Example 56-4, N-[2-(1,1-Dioxido-2,3-dihydro-1,4-benzothiazepin-4(5H)-yl)-6-methylquinazolin-4-yl]-2,2-difluoropropane-1,3-diamine] gave an EC50 of 0.027 µM.
With `Cc1ccc2nc(N3CCC(F)(F)c4ccccc4C3)nc(NCC(CN)(CO)CO)c2c1` [Example 114-4, 2-(Aminomethyl)-2-({[2-(5,5-difluoro-1,3,4,5-tetrahydro-2H-2-benzazepin-2-yl)-6-methylquinazolin-4-yl]amino}methyl)propane-1,3-diol] the EC50 was 0.186 µM.
Molecule `Cc1ccc2nc(N3CCS(=O)(=O)c4ccccc4C3)cc(NC(=O)N(C)C)c2c1` [Example 3-63, 3-[2-(1,1-Dioxido-2,3-dihydro-1,4-benzothiazepin-4(5H)-yl)-6-methylquinolin-4-yl]-1,1-dimethylurea] has an EC50 of 9.9 µM.
Molecule `Cc1ccc2nc(N3CCS(=O)(=O)c4ccccc4C3)cc(C(=O)C3CCNCC3)c2c1` [Example 100, [2-(1,1-Dioxido-2,3-dihydro-1,4-benzothiazepin-4(5H)-yl)-6-methylquinolin-4-yl](piperidin-4-yl)methanone] has an EC50 of 9.19 µM.
`Cc1ccc2nc(N3CCC(F)(F)c4ccccc4C3)cc(NCC3(CN)CS(=O)(=O)C3)c2c1` [Example 112-1, N-{[3-(Aminomethyl)-1,1-dioxidothietan-3-yl]methyl}-2-(5,5-difluoro-1,3,4,5-tetrahydro-2H-2-benzazepin-2-yl)-6-methylquinolin-4-amine] was tested, and the EC50 was 3.74 µM.
Work on `NC1(CNc2nc(N3CC[S+]([O-])c4ccccc4C3)nc3ccccc23)COC1` (stereo not shown) [Example 57-2, N-[(3-Aminooxetan-3-yl)methyl]-2-(1-oxido-2,3-dihydro-1,4-benzothiazepin-4(5H)-yl)quinazolin-4-amine] yielded an EC50 of 0.018 µM.
In the case of `NCCCNc1cc(N2CCS(=O)(=O)c3ccccc3C2)nc2ccc(Oc3ccccn3)cc12` [Example 31, N-[2-(1,1-Dioxido-2,3-dihydro-1,4-benzothiazepin-4(5H)-yl)-6-(pyridin-2-yloxy)quinolin-4-yl]propane-1,3-diamine], the EC50 is reported as 0.702 µM.
`Cc1ccc2nc(N3CCS(=O)(=O)c4ccccc4C3)cc(NC3CNC3)c2c1` [Example 26-1, N-(Azetidin-3-yl)-2-(1,1-dioxido-2,3-dihydro-1,4-benzothiazepin-4(5H)-yl)-6-methylquinolin-4-amine] gave an EC50 of 0.005 µM.
`NCCNc1cc(N2CCOc3ccccc3C2)nc2ccccc12` [Example 134, N-[2-(2,3-Dihydro-1,4-benzoxazepin-4(5H)-yl)quinolin-4-yl]ethane-1,2-diamine] showed an EC50 of 0.25 µM.
In the case of `Cc1ccc2nc(N3CCS(=O)(=O)c4ccccc4C3)cc(NC[C@H]3COC(N)=N3)c2c1` [Example 38-4, N-{[(4S)-2-Amino-4,5-dihydro-1,3-oxazol-4-yl]methyl}-2-(1,1-dioxido-2,3-dihydro-1,4-benzothiazepin-4(5 H)-yl)-6-methylquinolin-4-amine], the EC50 is reported as 0.064 µM.
In the case of `Cc1ccc2nc(N3CCS(=O)(=O)c4ccccc4C3)cc(NCC3(CN)COC3)c2c1` [Example 3-50, N-{[3-(Aminomethyl)oxetan-3-yl]methyl}-2-(1,1-dioxido-2,3-dihydro-1,4-benzothiazepin-4(5H)-yl)-6-methylquinolin-4-amine], the EC50 is reported as 0.0004 µM.
Work on `Cc1ccc2nc(N3CCS(=O)(=O)c4ccccc4C3)cc(N3CC(N)CC3=O)c2c1` (stereo not shown) [Example 73, 4-Amino-1-[2-(1,1-dioxido-2,3-dihydro-1,4-benzothiazepin-4(5H)-yl)-6-methylquinolin-4-yl]pyrrolidin-2-one] yielded an EC50 of 6.98 µM.
Work on `CN(C)CCNc1cc(N2CCCc3ccccc3C2)nc2ccccc12` [Example 118-22, N,N-Dimethyl-N′-[2-(1,3,4,5-tetrahydro-2H-2-benzazepin-2-yl)quinolin-4-yl]ethane-1,2-diamine] yielded an EC50 of 2.23 µM.
In the case of `Cc1cc2c(NCCN)cc(N3CCS(=O)(=O)c4ccccc4C3)nc2cc1F` [Example 9-24, N-[2-(1,1-Dioxido-2,3-dihydro-1,4-benzothiazepin-4(5H)-yl)-7-fluoro-6-methylquinolin-4-yl]ethane-1,2-diamine], the EC50 is reported as 0.024 µM.
Molecule `NC1CCN(c2cc(N3CCS(=O)(=O)c4ccccc4C3)nc3ccncc23)C1` (stereo not shown) [Example 9-28, 1-[2-(1,1-Dioxido-2,3-dihydro-1,4-benzothiazepin-4(5H)-yl)-1,6-naphthyridin-4-yl]pyrrolidin-3-amine] has an EC50 of 0.003 µM.
`Cc1ccc2nc(N3CC[S+]([O-])c4ccccc4C3)nc(NCC(F)CN)c2c1` (stereo not shown) [Example 55-3, 2-Fluoro-N-[6-methyl-2-(1-oxido-2,3-dihydro-1,4-benzothiazepin-4(5H)-yl)quinazolin-4-yl]propane-1,3-diamine] showed an EC50 of 0.006 µM.
Molecule `Cc1ccc2nc(N3CCS(=O)(=O)c4ccccc4C3)cc(NC(C)(C)CN)c2c1` [Example 9-17, N^˜2^˜-[2-(1,1-Dioxido-2,3-dihydro-1,4-benzothiazepin-4(5H)-yl)-6-methylquinolin-4-yl]-2-methylpropane-1,2-diamine] has an EC50 of 0.025 µM.
Work on `Cc1ccc2nc(N3CCS(=O)(=O)c4ccccc4C3)cc(NC(=O)[C@H](C)N)c2c1` [Example 40-3, N-[2-(1,1-Dioxido-2,3-dihydro-1,4-benzothiazepin-4(5H)-yl)-6-methylquinolin-4-yl]alaninamide] yielded an EC50 of 0.917 µM.
`Cc1ccc2nc(N3CCS(=O)(=O)c4ccccc4C3)cc(NCC(C)O)c2c1` (stereo not shown) [Example 5-7, 1-{[2-(1,1-Dioxido-2,3-dihydro-1,4-benzothiazepin-4(5H)-yl)-6-methylquinolin-4-yl]amino}propan-2-ol] showed an EC50 of 0.941 µM.
With `NCCCNc1cc(N2CCS(=O)(=O)c3ccccc3C2)nc2cc(Cl)ccc12` [Example 9-11, N-[7-Chloro-2-(1,1-dioxido-2,3-dihydro-1,4-benzothiazepin-4(5H)-yl)quinolin-4-yl]propane-1,3-diamine] the EC50 was 0.953 µM.
In the case of `Cc1ccc2nc(N3CCS(=O)(=O)c4ccccc4C3)cc(NCC(F)(F)C(F)(F)CN)c2c1` [Example 3-43, N-[2-(1,1-Dioxido-2,3-dihydro-1,4-benzothiazepin-4(5H)-yl)-6-methylquinolin-4-yl]-2,2,3,3-tetrafluorobutane-1,4-diamine], the EC50 is reported as 2.39 µM.
Work on `Cc1ccc2nc(N3CCS(=O)(=O)c4ccccc4C3)cc(N3CCOCC3)c2c1` [Example 9-4, 4-[6-Methyl-4-(morpholin-4-yl)quinolin-2-yl]-2,3,4,5-tetrahydro-1,4-benzothiazepine 1,1-dioxide] yielded an EC50 of 8.87 µM.
`COC(C)(C)C(=O)Nc1cc(N2CCS(=O)(=O)c3ccccc3C2)nc2ccc(C)cc12` [Example 41, N-[2-(1,1-Dioxido-2,3-dihydro-1,4-benzothiazepin-4(5H)-yl)-6-methylquinolin-4-yl]-2-methoxy-2-methylpropanamide] gave an EC50 of 2.63 µM.
Work on `NC1(CNc2nc(N3CCS(=O)(=O)c4ccccc4C3)nc3ccc(Cl)cc23)COC1` [Example 57-6, N-[(3-Aminooxetan-3-yl)methyl]-6-chloro-2-(1,1-dioxido-2,3-dihydro-1,4-benzothiazepin-4(5H)-yl)quinazolin-4-amine] yielded an EC50 of 0.037 µM.
In the case of `Cc1ccc2nc(N3CCS(=O)(=O)c4ccccc4C3)cc(S(=O)(=O)c3ccccc3)c2c1` [Example 102, 4-[6-Methyl-4-(phenylsulfonyl)quinolin-2-yl]-2,3,4,5-tetrahydro-1,4-benzothiazepine 1,1-dioxide], the EC50 is reported as 9.76 µM.
Molecule `Cc1ccc2nc(N3CCS(=O)(=O)c4ccccc4C3)cc(NCCCCCCCCCO)c2c1` [Example 12-6, 9-{[2-(1,1-Dioxido-2,3-dihydro-1,4-benzothiazepin-4(5H)-yl)-6-methylquinolin-4-yl]amino}nonan-1-ol] has an EC50 of 9.21 µM.
In the case of `Cc1ccc2nc(N3CCS(=O)(=O)c4ccccc4C3)cc(NCC3COC3)c2c1` [Example 3-53, 2-(1,1-Dioxido-2,3-dihydro-1,4-benzothiazepin-4(5H)-yl)-6-methyl-N-(oxetan-3-ylmethyl)quinolin-4-amine], the EC50 is reported as 0.261 µM.
